Test systems include T-47D breast; A498 renal; 786-0 renal; SK-OV-3 ovarian; PC-3 prostate; NCI-H226 lung; HT29 colon; SK-MEL-5 melanoma; SW-620 colon; NCI-H522 lung.
Test in all cases: NCI-60 cell line screen, 48 h

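Five compound concentrations were applied to cells in 96-well plates for 48 hours; endpoints were derived by simple linear interpolation of the resulting dose-response curve. GI50 = concentration required for 50% inhibition of growth. TGI: total growth inhibition.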

Consider `Nc1nc(Nc2ccccc2)sc1C(=O)c1ccco1`, for which the TGI in the experiment on T-47D breast was 41.4 µM; in the experiment with A498 renal, 39.6 µM; with 786-0 renal, 31.7 µM; in the experiment with SK-OV-3 ovarian it was 93.6 µM; in the experiment on PC-3 prostate it was greater than 100 µM; in the experiment on NCI-H226 lung, 55.3 µM. For the same molecule, the TGI amounted to 41.9 µM in the experiment with HT29 colon, 23.2 µM in the experiment on SK-MEL-5 melanoma and 67.4 µM with SW-620 colon.
`O=C1OC(c2ccccc2)N(C(=O)c2ccccc2)C1Cc1ccc(OCc2ccccc2)cc1` (stereo not drawn): the TGI with T-47D breast is greater than 100 µM; in the experiment on A498 renal, 33.5 µM; in the experiment on 786-0 renal, greater than 100 µM; with SK-OV-3 ovarian it was greater than 100 µM; with PC-3 prostate it was greater than 100 µM; in the experiment on NCI-H226 lung, greater than 100 µM. Further, the TGI with SK-MEL-5 melanoma and with SW-620 colon was greater than 100 µM each time.
In the case of `CC1(C)OC2COC3([C@@H]4OC(C)(C)O[C@@H]4CO)OC(C)(C)OC3C2O1` (stereo partly drawn), the TGI in the experiment with T-47D breast, in the experiment on A498 renal, with 786-0 renal, in the experiment with PC-3 prostate, with NCI-H226 lung and with SK-MEL-5 melanoma was greater than 100 µM each time. In addition, in the experiment with SW-620 colon, the TGI was greater than 100 µM.
With `COc1ccc(C2c3cc4c(cc3OC(NCCO)C2C)OCO4)cc1` (stereo not drawn), the TGI with T-47D breast is greater than 100 µM; in the experiment with A498 renal, 48.8 µM; with NCI-H522 lung, 47.8 µM; with SK-OV-3 ovarian, 87.6 µM; in the experiment with PC-3 prostate, 66.3 µM; with NCI-H226 lung it was 90.2 µM. The values for the TGI in the experiment with HT29 colon, in the experiment on SK-MEL-5 melanoma and in the experiment on SW-620 colon were 43.5 µM, 44.7 µM and greater than 100 µM, respectively.
With `COc1ccc(-n2nc(C)c3c(Nc4ccc(NC(=O)Nc5ccc(Cl)c(C(F)(F)F)c5)cc4)ncnc32)cc1`, the GI50 with T-47D breast is 1.71 µM; in the experiment with A498 renal, 2.09 µM; in the experiment with NCI-H522 lung, 1.71 µM; in the experiment on SK-OV-3 ovarian it was 2.42 µM; in the experiment on PC-3 prostate, 1.16 µM; in the experiment with NCI-H226 lung, 2.21 µM. Besides, the GI50 in the experiment on HT29 colon was 1.8 µM; with SK-MEL-5 melanoma, 1.72 µM; in the experiment on SW-620 colon it was 1.9 µM. Moreover, the TGI came to 5.41 µM in the experiment on T-47D breast; 5.67 µM in the experiment on A498 renal; 3.65 µM in the experiment with NCI-H522 lung; 6.27 µM in the experiment with SK-OV-3 ovarian; 3.95 µM with PC-3 prostate; 6.08 µM in the experiment with NCI-H226 lung. For the same molecule, the results for the TGI with HT29 colon, in the experiment with SK-MEL-5 melanoma and in the experiment on SW-620 colon were 4.17 µM, 3.23 µM and 4.35 µM, respectively.
Regarding `CCN(CCCl)c1cc(CN(C)C)cc(NC(=O)c2ccc(C(=O)Nc3cccc(CN(C)C)c3)cc2)c1`, the TGI in the experiment with T-47D breast is 10.1 µM; with A498 renal, 7.33 µM; in the experiment with 786-0 renal, 2.35 µM; with NCI-H522 lung, 0.042 µM; in the experiment on SK-OV-3 ovarian it was greater than 100 µM; in the experiment on PC-3 prostate it was 0.733 µM. Further, the TGI in the experiment on NCI-H226 lung amounted to 17.2 µM; with HT29 colon, 6.87 µM; with SW-620 colon, 0.75 µM.
On to `COC(=O)N1N=C(c2ccccc2)C1c1ccccc1` (stereo not drawn), for which the TGI was greater than 100 µM in the experiment with T-47D breast; greater than 100 µM in the experiment on A498 renal; greater than 100 µM in the experiment on 786-0 renal; greater than 100 µM in the experiment on SK-OV-3 ovarian; greater than 100 µM in the experiment on PC-3 prostate; 77.1 µM in the experiment on NCI-H226 lung. Further, the TGI with HT29 colon and in the experiment on SW-620 colon was greater than 100 µM throughout.
`COc1ccc([C@H]2C=[N+]([O-])O[C@H](OC3CCCC3)[C@@H]2OC(C)=O)cc1OC`: the TGI with T-47D breast was 53.2 µM; in the experiment with A498 renal it was greater than 100 µM; in the experiment on NCI-H522 lung it was 17.9 µM; in the experiment with SK-OV-3 ovarian, greater than 100 µM; in the experiment with PC-3 prostate, greater than 100 µM; in the experiment on NCI-H226 lung it was greater than 100 µM. For the same molecule, the TGI in the experiment with HT29 colon was determined as 54.7 µM; in the experiment with SK-MEL-5 melanoma it was 29.6 µM; in the experiment with SW-620 colon, 53 µM.
Take `O=C(/C=C/c1ccc2c(c1)OCO2)Cc1nc2ccccc2[nH]c1=O`: the TGI with T-47D breast is 34.2 µM; in the experiment with A498 renal, 65.7 µM; in the experiment with 786-0 renal, 32.5 µM; with NCI-H522 lung, greater than 100 µM; in the experiment with SK-OV-3 ovarian it was 33.5 µM; with PC-3 prostate it was 47.9 µM. Also, the TGI in the experiment with HT29 colon, in the experiment with SK-MEL-5 melanoma and in the experiment on SW-620 colon was greater than 100 µM in each case.
For the molecule `COc1ccc(OC)c2sc(N3C(=O)/C(=C/c4cccc([N+](=O)[O-])c4)N=C3c3ccccc3)nc12`, the TGI was 64.2 µM in the experiment on T-47D breast; greater than 100 µM in the experiment on A498 renal; greater than 100 µM in the experiment with 786-0 renal; greater than 100 µM in the experiment on NCI-H522 lung; greater than 100 µM in the experiment on SK-OV-3 ovarian; greater than 100 µM with PC-3 prostate. Further, the TGI is greater than 100 µM with HT29 colon, greater than 100 µM in the experiment with SK-MEL-5 melanoma and 95.2 µM in the experiment with SW-620 colon.
As for `C=CC(=O)N1C/C(=C\c2ccc(Cl)cc2)C(=O)/C(=C/c2ccc(Cl)cc2)C1`, the TGI came out at 6.85 µM in the experiment with T-47D breast; 1.25 µM in the experiment with A498 renal; 0.55 µM with 786-0 renal; 1.71 µM with SK-OV-3 ovarian; 0.751 µM in the experiment on PC-3 prostate; 3.03 µM in the experiment on NCI-H226 lung. For the same molecule, the TGI with HT29 colon amounted to 0.326 µM; in the experiment with SK-MEL-5 melanoma, 5.11 µM; with SW-620 colon it was 0.887 µM.
Turning to `Nc1ccc(-c2nn3c(COc4ccc(Cl)cc4)nnc3s2)cc1`, the TGI with T-47D breast, in the experiment with 786-0 renal, in the experiment on NCI-H522 lung, in the experiment on SK-OV-3 ovarian, in the experiment on PC-3 prostate and with NCI-H226 lung was greater than 100 µM throughout. For the same molecule, the TGI with HT29 colon, in the experiment on SK-MEL-5 melanoma and with SW-620 colon was greater than 100 µM in each case. For the same molecule, the GI50 in the experiment with NCI-H226 lung is 7.19 µM.
In the case of `O=C1CS(=O)(=O)C(c2cccc(Oc3ccccc3)c2)N1c1cc(Cl)ccc1Cl` (stereo not drawn), the TGI came to 53.2 µM in the experiment with T-47D breast; 34.8 µM in the experiment with 786-0 renal; 56 µM in the experiment on NCI-H522 lung; 48.9 µM with SK-OV-3 ovarian; 32 µM in the experiment on PC-3 prostate; 41.5 µM with NCI-H226 lung. Moreover, the TGI with HT29 colon is 47.8 µM; with SK-MEL-5 melanoma it was 31.2 µM; in the experiment with SW-620 colon, greater than 100 µM.

Values taken from PubChem BioAssay (NCI).
